Experimental findings from article PMC8767159, “Multiparameter Optimization of Trypanocidal Cruzain Inhibitors With In Vivo Activity and Favorable Pharmacokinetics” (Frontiers in Pharmacology, 2022) are described below.

Read-outs that look alike come from different tables or passages of the source. Some results are limits rather than exact numbers.

The nature of data set [1]: In vitro metabolic stability in mouse liver microsomes. The data set is classed as in vitro ADME. Particulars: mouse, liver microsomes. How it is done: (§1) Isolated mouse (BD Gentest, Bedford, MA) and human liver microsomes (XenoTech, Kansas City, KS) ([Plant, 2004]) were added at a final concentration of 0.25 mg/ml to a solution containing 40 mM dibasic potassium phosphate and 10 mM monobasic potassium phosphate. Stock solutions of compounds at 5 mM were prepared in 100% DMSO. A 50:50 quenching solution of acetonitrile (ACN) and methanol (MeOH) was prepared. An NADPH solution was prepared at 10 mM. The preparations containing the microsomes were added to each well of the incubation plate (450 µl), which was then heated to 37°C for 10 min. The compounds were added to the respective wells of the test plate (2 µl). Then, 300 µl of the microsome preparation was added to each well of the test plate. The test plate was heated under gentle rotation for 5 min at 37°C. Next, 90 µl of the mixture contained in the test plate was added to the incubation plate, making a final volume of 540 µl. Samples were collected at the following incubation times: 0, 5, 10, 15, 20, and 30 min. To the 0 min sample plate, quenching solution (180 µl), NADPH (6 µl), and the incubation plate mixture (54 µl) were added to each well. The sample plate was then sealed, homogenized, and stored at 4°C. Then, 54 µl of the NADPH solution was added to the incubation plate, which was homogenized. Before the collection of each sample at the established times, 45 µl of the quenching solution was added to each well of the corresponding sample plates. After reaching the incubation times, 60 µl of the mixture contained in the incubation plate was added to the corresponding sample plates. The sample plates were then sealed and stored at 4°C. After the collection of the last sample (30 min), all sample plates were centrifuged at 3,800 rpm for 30 min. The supernatant from each well was collected and transferred to clean plates for mass spectrometry. Five to 10 µl of each sample was injected into an AB Sciex Triple Quad 5500 LC-MS/MS instrument.
(§2) For the biotransformation experiments and analysis of metabolites in microsomes, an Ultra-High-Pressure Liquid Chromatography instrument (UHPLC, Thermo Accela, Waltham, MA) ([Spaggiari et al., 2014]) connected to an automatic sample injector and a 1250 series pump was used. The UHPLC system was connected to a Thermo Fisher (Waltham, MA) LTQ Orbitrap mass spectrometer. For all other analyses, an AB Sciex Triple Quad 5500 coupled to a UHPLC equipped with a UV 1290 diode detector (Agilent Technologies, Santa Clara, CA) and a CTC PAL self-collecting system (LEAP Technologies, Carrboro, NC) was used. Q1 MS positive ion mode (300–500 Da) was used to detect the ions of the parent compounds. The UV detector was operated in spectral mode (250–280 nm). A Hypersil Gold C18 (2.1 mm × 100 mm, 1.9 µm, Thermo Fisher) HPLC column was used. The mobile phases were solvent A (0.1% formic acid in water) and solvent B (0.1% formic acid in ACN). The flow was adjusted to 0.55 ml/min, and the injection volume was adjusted to […]. The gradient started with 1% solvent B for 0.4 min, reached 40% (solvent B) in 2.3 min and 95% (solvent B) in 0.67 min, was maintained for 0.5 min, and returned to the initial condition of 1%. This condition was maintained for 1 min before injection of the next sample. The peak area ratio (peak area of the test compounds/peak area of the control compounds) was converted to the percentage of remaining compound, with the 0 min time point ratio set to 100%. T½ and CLint were calculated from the percentage of remaining compound versus the incubation time. From the resulting function, the slope (k) was determined. The equations T1/2 (min) = ln(2)/k and CLint in vitro (μL/min/mg) = k*1000/0.25 were used to determine T½ and CLint.

Data set [2] can be described thus: In vitro metabolic stability in human liver microsomes. Particulars: for CLint scaled at 5 µM: human, liver microsomes. The data set is classed as in vitro ADME. The procedure: as §1, §2
Data set [3] in a line: In vivo pharmacokinetics in male CD1 mice. Further details: species or system mouse. Particulars: for CLpu: plasma clearance corrected for the fraction unbound; for clearance: plasma clearance, read-out: CLp (L/h/kg) IV (converted). How it is done: The in vivo pharmacokinetic profiles of the compounds were determined using male CD1 mice weighing […] ([Davies and Morris, 1993]; [Liu and Jia, 2007]). The compounds were administered in a single dose orally (0.5 mg/kg) and intravenously (0.5 mg/kg). Stock solutions of the compounds in DMSO were diluted in Tween 80, PEG-400, and D5W (5% dextrose in water) at a ratio of 2:5:20:73 (v/v). The injection volume was 10 ml/kg. The remaining plasma concentration was monitored over time by LC-MS/MS by collecting blood samples (40 μl) at 10, 25, and 50 min and 1, 3, 6, 9, 12, and 24 h after administration of the compound.
as §2

[4] abbreviates: Table S5, read-out: CLint (L/h/kg) Mouse (converted).
Setting [5] is: Table S5, CLint/fu, read-out: CLint_u (L/h/kg) Human (converted).
[6] abbreviates: Table S5, read-out: CLint (L/h/kg) Human (converted).
The mark [7] stands for this setting: Table S5, CLint/fu, read-out: CLint_u (L/h/kg) Mouse (converted).
The mark [8] stands for this setting: Table 5, CLint/fu, read-out: CLint_u (L/h/kg) mouse (converted).
Where [9] appears, read: Table 5, read-out: CLint (L/h/kg) mouse (converted).
The mark [10] stands for this setting: Table 5, CLint/fu, read-out: CLint_u (L/h/kg) human (converted).
Where [11] appears, read: Table 5, read-out: CLint (L/h/kg) human (converted).
[12] abbreviates: mouse, plasma, Table 6, IV 0.5 mg/kg, male CD1 mice.
The mark [13] stands for this setting: mouse, plasma, Table 6, IV 0.5 mg/kg, male CD1 mice, read-out: AUC (ng*h/ml) IV.
[14] abbreviates: mouse, plasma, Table 6, IV 0.5 mg/kg, male CD1 mice, read-out: T1/2 (h) IV (converted).
Where [15] appears, read: mouse, plasma, Table 6, IV 0.5 mg/kg, male CD1 mice, read-out: V SS (L/kg) IV.
Setting [16] is: mouse, Table 6, IV 0.5 mg/kg, male CD1 mice.
Setting [17] is: mouse, plasma, Table 6, PO 0.5 mg/kg, male CD1 mice.

Turning to `Cc1ccccc1OCC(=O)NCCc1nc2ccccc2n1CCOc1ccccc1Br` [Compound 22], the values for the CLint scaled at 5 µM in data set [1] (setting [4]), in data set [2] (setting [5]) and in data set [2] (setting [6]) were 487 L/h/kg, 3870 L/h/kg and 123 L/h/kg, respectively.

Regarding `O=C(COc1ccc2c(C(=O)O)cccc2c1)NCCc1nc2ccccc2[nH]1` [Compound 15], the CLint scaled at 5 µM in data set [1] (setting [7]) is 12.9 L/h/kg; in data set [1] (setting [4]) it was 12.9 L/h/kg; in data set [2] (setting [5]) it was below 1.5 L/h/kg; in data set [2] (setting [6]), below 1.5 L/h/kg.

With `O=C(COc1ccccc1)NCCc1nc2ccccc2n1CCOc1ccccc1Br` [Compound 19], the CLint scaled at 5 µM is 2580 L/h/kg in data set [1] (setting [7]), 305 L/h/kg in data set [1] (setting [4]), 949 L/h/kg in data set [2] (setting [5]) and 112 L/h/kg in data set [2] (setting [6]).

Consider `Nc1cccc(OCC(=O)NCCc2nc3ccccc3[nH]2)c1` [Compound 9], for which the CLint scaled at 5 µM in data set [1] (setting [7]) was 22.8 L/h/kg; in data set [1] (setting [4]), 22.7 L/h/kg; in data set [2] (setting [5]), 11.1 L/h/kg; in data set [2] (setting [6]) it was 11 L/h/kg.

For the compound `O=C(COc1ccc(N2C(=O)CCC2=O)cc1)NCCc1nc2ccccc2[nH]1` [Compound 4], the CLint scaled at 5 µM in data set [1] (setting [7]) was 20.9 L/h/kg; in data set [1] (setting [4]) it was 20.8 L/h/kg; in data set [2] (setting [5]), below 1.51 L/h/kg; in data set [2] (setting [6]), below 1.5 L/h/kg.

Take `O=C(COc1cccc(N2C(=O)CCC2=O)c1)NCCc1nc2ccccc2[nH]1` [Compound 6]: the CLint scaled at 5 µM in data set [1] (setting [7]) was 217 L/h/kg; in data set [1] (setting [4]), 217 L/h/kg; in data set [2] (setting [5]) it was 3.54 L/h/kg; in data set [2] (setting [6]), 3.54 L/h/kg. The “CLint_u (L/h/kg) Human” value in data set [2] (Table S5, CLint/fu) was 3.54 L/h/kg.

Usually bioavailability stands for the share of a dose that reaches the circulation, judged against a reference dose that is usually intravenous. Read a high bioavailability as much systemic uptake. In the case of `O=C(CCc1ccccc1Br)NCCc1nc2ccccc2[nH]1` [Compound 36], the CLint scaled at 5 µM in data set [1] (setting [8]) is 935 L/h/kg; in data set [1] (setting [9]) it was 705 L/h/kg; in data set [2] (setting [10]), 38.2 L/h/kg; in data set [2] (setting [11]) it was 28.8 L/h/kg. In addition, in data set [3] (Table 6, IV), the “CLpu” value turned out to be 231.5 L/h/kg. Also, the bioavailability in data set [3] (mouse, plasma, 0.5 mg/kg, Table 6, oral bioavailability, male CD1 mice) came to 0%. In data set [3] (setting [12]), this compound gave a C0 of 0.144 µg/mL. The AUC in data set [3] (setting [13]) came to 55 ng·h/mL. The half-life in data set [3] (setting [14]) was 0.5 h. Also, the Vd in data set [3] (setting [15]) is 7.2 L/kg. Moreover, the clearance in data set [3] (setting [16]) was 9.5 L/h/kg.

For `O=C(COc1ccccc1)NCCc1nc2ccccc2n1-c1ccccc1` [Compound 30], the CLint scaled at 5 µM in data set [1] (setting [7]) is 1130 L/h/kg; in data set [1] (setting [4]) it was 713 L/h/kg; in data set [2] (setting [5]), 92.4 L/h/kg; in data set [2] (setting [6]) it was 58.1 L/h/kg.

For `O=C(COc1ccccc1)NCCc1nc2ccccc2n1CCOCc1ccccc1` [Compound 21], the CLint scaled at 5 µM in data set [1] (setting [7]) is 1790 L/h/kg; in data set [1] (setting [4]), 847 L/h/kg; in data set [2] (setting [5]), 496 L/h/kg; in data set [2] (setting [6]), 235 L/h/kg.

Broadly, the Cmax is the peak of the concentration-time curve. By Tmax is commonly meant the time from dosing to the highest level. Take `N#Cc1ccccc1OCC(=O)NCCc1nc2ccccc2[nH]1` [Compound 31]: the CLint scaled at 5 µM in data set [1] (setting [8]) was 87.9 L/h/kg; in data set [1] (setting [9]), 74.6 L/h/kg; in data set [2] (setting [10]), 6.6 L/h/kg; in data set [2] (setting [11]), 5.6 L/h/kg. Also, the “CLpu” value in data set [3] (Table 6, IV) is 29.9 L/h/kg. Moreover, the C0 in data set [3] (setting [12]) was determined as 0.232 µg/mL. The AUC in data set [3] (setting [13]) is 67 ng·h/mL. In addition, in data set [3] (setting [14]), the half-life is 0.2 h. Also, the Vd in data set [3] (setting [15]) was 1.9 L/kg. This compound also returned a Cmax in data set [3] (setting [17]) of 0.0128 µg/mL. Moreover, in data set [3] (setting [17]), the Tmax turned out to be 18 min. The clearance in data set [3] (setting [16]) is 4.6 L/h/kg.

`O=C(COc1ccc2ccc(O)cc2c1)NCCc1nc2ccccc2[nH]1` [Compound 11]: the CLint scaled at 5 µM in data set [1] (setting [7]) is 68.5 L/h/kg; in data set [1] (setting [4]) it was 45.7 L/h/kg; in data set [2] (setting [5]), 14.2 L/h/kg; in data set [2] (setting [6]) it was 9.48 L/h/kg. In addition, the “CLpu” value in data set [3] (Table S6) is 480.66 L/h/kg. Also, the clearance in data set [3] (male, CD1, mouse, 0.5 mg/kg, Table S6, IV, mice) is 12.9 L/h/kg. Moreover, the C0 in data set [3] (male, CD1, mouse, plasma, 0.5 mg/kg, Table S6, IV, mice) was 0.4 µg/mL. Besides, in data set [3] (male, CD1, mouse, plasma, 0.5 mg/kg, Table S6, IV, mice, read-out: AUC (ng*h/mL) IV), the AUC is 77 ng·h/mL. Besides, the half-life in data set [3] (male, CD1, mouse, plasma, 0.5 mg/kg, Table S6, IV, mice, read-out: T1/2(h) IV (converted)) is 0.13 h. Besides, in data set [3] (male, CD1, mouse, plasma, 0.5 mg/kg, Table S6, IV, mice, read-out: VSS (L/kg) IV), the Vd worked out at 1.92 L/kg.

In the case of `COCCn1c(CCNC(=O)COc2ccccc2)nc2ccccc21` [Compound 29], the CLint scaled at 5 µM in data set [1] (setting [7]) is 235 L/h/kg; in data set [1] (setting [4]) it was 235 L/h/kg; in data set [2] (setting [5]), 23 L/h/kg; in data set [2] (setting [6]) it was 23 L/h/kg.

Consider `O=C(COc1ccccc1Br)NCCc1nc2ccccc2n1CCOc1ccccc1Br` [Compound 23], for which the CLint scaled at 5 µM in data set [1] (setting [4]) is 300 L/h/kg; in data set [2] (setting [5]) it was 3370 L/h/kg; in data set [2] (setting [6]), 136 L/h/kg.

As for `O=C(COc1cccc(NC(=O)CCCO)c1)NCCc1nc2ccccc2[nH]1` [Compound 7], the results for the CLint scaled at 5 µM in data set [1] (setting [7]), in data set [1] (setting [4]) and in data set [2] (setting [5]) were 8.19 L/h/kg, 8.19 L/h/kg and below 1.5 L/h/kg, respectively.

As to `COc1ccc2cc(OCC(=O)NCCc3nc4ccccc4[nH]3)ccc2c1` [Compound 12], the CLint scaled at 5 µM was 1610 L/h/kg in data set [1] (setting [7]), 177 L/h/kg in data set [1] (setting [4]), 233 L/h/kg in data set [2] (setting [5]) and 25.6 L/h/kg in data set [2] (setting [6]).

Turning to `Cn1c(CCNC(=O)COc2ccccc2)nc2ccccc21` [Compound 25], the CLint scaled at 5 µM is 123 L/h/kg in data set [1] (setting [7]), 122 L/h/kg in data set [1] (setting [4]), 4.61 L/h/kg in data set [2] (setting [5]) and 4.57 L/h/kg in data set [2] (setting [6]).
